≈ marks a conversion by molar mass, not a printed value.
Legend:
Experiment in all cases: In vitro antibacterial evaluation: minimum inhibitory concentration (MIC), broth dilution method
Type in all cases: cell-based
Escherichia coli = settings: 5×10^5 CFU/mL, 18 hours at 35° C.
Method: (§1) The minimum inhibitory concentration (MIC), the lowest concentration of the antibiotic which inhibits growth of the test organism, is determined by the broth dilution method using Muller-Hinton II […] (Baltimore Biological Laboratories) following the recommendations of the National Committee for Clinical Laboratory Standards [Methods for dilution antimicrobial susceptibility tests for bacteria that grow aerobically, approved standard M7-A2, National Committee for Clinical Laboratory Standards, Villanova, Pa].
(§2) An inoculum level of 5×10^5 CFU/mL, and a range of antibiotic concentrations (64-0.06 μg/mL) is used. […] The test organisms include a spectrum of Gram-positive bacteria comprised of Staphylococcus sp., Streptococcus sp. and Enterococcus sp. These organisms include recent clinical isolates that are resistant to methicillin, penicillin and/or vancomycin.

Staphylococcus sp. = settings: for MIC Staphylococcus haemolyticus (GC 4546): strain GC 4546; for MIC Coagulase Negative Staphylococcus (GC 4547): strain GC 4547; for MIC Coagulase Negative Staphylococcus (GC 4551): strain GC 4551; for MIC Coagulase Negative Staphylococcus (GC 6257): strain GC 6257
Method: as §1, §2

Enterococcus sp. = settings: broth dilution, 5×10^5 CFU/mL, 18 hours at 35° C.
Method: as §1, §2

Streptococcus sp. = settings: broth dilution, 5×10^5 CFU/mL, 18 hours at 35° C.
Method: as §1, §2

[1] = broth dilution, 18 hours at 35° C.

MIC Escherichia coli (ATCC 25922) (Escherichia coli): >64 µg/mL
MIC Escherichia coli (GC 4559) (Escherichia coli): >64 µg/mL
MIC Staphylococcus aureus (GC 3051) (Staphylococcus sp.; strain GC 3051): 0.5 µg/mL (≈ 0.361 µM)
MIC Staphylococcus aureus (GC 3053) (Staphylococcus sp.; strain GC 3053): 0.5 µg/mL (≈ 0.361 µM)
MIC Staphylococcus aureus (GC 4542) (Staphylococcus sp.; strain GC 4542): 0.5 µg/mL (≈ 0.361 µM)
MIC Staphylococcus aureus (GC 4544) (Staphylococcus sp.; strain GC 4544): 0.5 µg/mL (≈ 0.361 µM)
MIC Staphylococcus aureus (GC 4545) (Staphylococcus sp.; strain GC 4545): 0.5 µg/mL (≈ 0.361 µM)
MIC Coagulase Negative Staphylococcus (GC 4547) (Staphylococcus sp.): 32 µg/mL (≈ 23.1 µM)
MIC Coagulase Negative Staphylococcus (GC 4547) (Staphylococcus sp.; [1]): 32 µg/mL (≈ 23.1 µM)
MIC Coagulase Negative Staphylococcus (GC 4551) (Staphylococcus sp.): 32 µg/mL (≈ 23.1 µM)
MIC Coagulase Negative Staphylococcus (GC 4551) (Staphylococcus sp.; [1]): 32 µg/mL (≈ 23.1 µM)
MIC Coagulase Negative Staphylococcus (GC 6257) (Staphylococcus sp.): 16 µg/mL (≈ 11.6 µM)
MIC Coagulase Negative Staphylococcus (GC 6257) (Staphylococcus sp.; [1]): 16 µg/mL (≈ 11.6 µM)
MIC Enterococccus avium (GC 4558) (Enterococcus sp.): >64 µg/mL
MIC Enterococccus faecalis (ATCC 29212) (Enterococcus sp.): >64 µg/mL
MIC Enterococccus faecalis (GC 2691) (Enterococcus sp.): >0.5 µg/mL
MIC Enterococccus faecalis (GC 3059) (Enterococcus sp.): >0.5 µg/mL
MIC Enterococccus faecalis (GC 4552) (Enterococcus sp.): >0.5 µg/mL
MIC Enterococccus faecalis (GC 4553) (Enterococcus sp.): >0.5 µg/mL
MIC Enterococccus faecalis (GC 4554) (Enterococcus sp.): >0.5 µg/mL
MIC Enterococccus faecalis (GC 6189) (Enterococcus sp.): >64 µg/mL
MIC Enterococccus faecium (GC 2243) (Enterococcus sp.): >64 µg/mL
MIC Enterococccus faecium (GC 4556) (Enterococcus sp.): >64 µg/mL
MIC Enterococccus faecium (GC 4557) (Enterococcus sp.): 0.5 µg/mL (≈ 0.361 µM)
MIC Enterococcus faecalis (GC 2242) (Enterococcus sp.): >64 µg/mL
MIC Streptococcus agalactiae (GC 4564) (Streptococcus sp.): 0.5 µg/mL (≈ 0.361 µM)
MIC Streptococcus pneumoniae (GC 4565) (Streptococcus sp.): 0.12 µg/mL (≈ 0.0867 µM)
MIC Streptococcus pneumonine (ATCC 6301) (Streptococcus sp.): 0.12 to 16 µg/mL
MIC Streptococcus pyogenes (GC 4563) (Streptococcus sp.): 0.12 µg/mL (≈ 0.0867 µM)
SMILES: CC(c1ccccc1)C1NC(=O)CNC(=O)C(CO)NC(=O)C(C(O)C2CNC(=N)N2C2OC(CO)C(O)C(O)C2O)NC(=O)C(C(O)C2CNC(=N)N2)NC(=O)C(Cc2ccc(OC3OC(CO)C(OC4OC(CO)C(O)C5OC(c6ccccc6)OC45)C(O)C3O)cc2)NC1=O (single isomer, unassigned) [Example 104a, Cyclo[glycyl-β-methylphenylalanyl-O-[4-O-(2,3-O-benzylidenehexopyranosyl)hexopyranosyl]-tyrosyl-3-(2-iminoimidazolidin-4-yl)seryl-3-(3-hexopyranosyl-2-iminoimidazolidin-4-yl)-serylseryl]]
MIC Staphylococcus haemolyticus (GC 4546) (Staphylococcus sp.): 32 µg/mL (≈ 23.1 µM)
MIC Staphylococcus haemolyticus (GC 4546) (Staphylococcus sp.; [1]): 32 µg/mL (≈ 23.1 µM)
